Laboratory results reported in the NIST ThermoML archive (doi:10.1021/acs.jced.7b00107).

Assay: molar heat capacity at constant pressure
Conditions: 101.33 kPa, Crystal 3, Small (less than 1 g) adiabatic calorimetry

Cl.NC12CC3CC(CC(C3)C1)C2 [1-aminoadamantane hydrochloride]
Conditions | molar heat capacity at constant pressure [J/K/mol]
5 K | 0.585
5.01 K | 0.5801
5.25 K | 0.6835
5.49 K | 0.7946
5.75 K | 0.916
6 K | 1.051
6.3 K | 1.22
6.62 K | 1.42
6.95 K | 1.642
7.29 K | 1.891
7.64 K | 2.153
7.99 K | 2.437
8.34 K | 2.747
8.7 K | 3.078
9.06 K | 3.426
9.43 K | 3.794
9.79 K | 4.174
10 K | 4.396
10.17 K | 4.569
10.64 K | 5.116
11.22 K | 5.781
11.81 K | 6.479
12.4 K | 7.208
13 K | 7.971
13.6 K | 8.754
14.21 K | 9.533
14.82 K | 10.38
15 K | 10.64
15.54 K | 11.36
16.37 K | 12.56
17.21 K | 13.72
18.05 K | 14.85
18.89 K | 15.98
19.74 K | 17.1
20 K | 17.48
20.86 K | 18.62
22.27 K | 20.49
23.7 K | 22.36
25 K | 24
25.12 K | 24.15
26.55 K | 25.89
27.96 K | 27.53
29.45 K | 29.22
30 K | 29.84
31.06 K | 31
32.82 K | 32.84
34.59 K | 34.6
35 K | 34.98
36.37 K | 36.26
38.14 K | 37.9
39.92 K | 39.49
40 K | 39.56
41.79 K | 41.08
43.77 K | 42.73
45 K | 43.74
45.75 K | 44.38
47.72 K | 45.9
49.71 K | 47.41
50 K | 47.63
51.69 K | 48.89
53.68 K | 50.26
55.67 K | 51.64
57.67 K | 52.99
59.67 K | 54.32
60 K | 54.53
61.67 K | 55.65
63.67 K | 56.94
65.68 K | 58.17
67.69 K | 59.45
69.7 K | 60.69
70 K | 60.92
71.71 K | 62
73.72 K | 63.24
75.74 K | 64.48
77.75 K | 65.74
78.45 K | 66.2
79.78 K | 66.97
80 K | 67.11
80.56 K | 67.47
81.8 K | 68.23
82.48 K | 68.62
83.83 K | 69.44
84.4 K | 69.79
86.32 K | 71.01
88.24 K | 72.23
90 K | 73.32
90.17 K | 73.44
92.09 K | 74.67
94.02 K | 75.9
95.95 K | 77.18
97.89 K | 78.44
99.83 K | 79.74
100 K | 79.81
100.61 K | 80.3
101.77 K | 81.04
102.13 K | 81.29
103.66 K | 82.26
103.71 K | 82.35
105.19 K | 83.26
105.66 K | 83.7
106.71 K | 84.46
107.61 K | 85.07
108.24 K | 85.55
109.57 K | 86.53
109.77 K | 86.68
110 K | 86.83
110.61 K | 87.3
111.3 K | 87.82
111.52 K | 88.04
111.99 K | 88.23
112.83 K | 89.22
113 K | 89.28
113.48 K | 89.74
114.01 K | 90.15
114.36 K | 90.6
115.02 K | 91.42
115.44 K | 92
115.56 K | 91.67
115.89 K | 92.64
116.03 K | 92.78
116.09 K | 92.4
116.58 K | 93.36
117.03 K | 94.87
117.07 K | 94.53
117.39 K | 96.19
117.4 K | 96.04
117.56 K | 95.93
